Experimental data taken from the supplement of paper PMC10307832.

Legend:
Experiment in all cases: relative viability (nuclei count vs DMSO), 5 days (fraction); higher = more cells survive
[1] = tested on: HCC-78
Procedure, shortened: (§1)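 One day after seeding in 1536-well plates, lung cancer cell lines were dosed by pin tool. Dosing was either single-drug or a fixed anchor-drug dose plus five library-drug doses (not always all listed) in √10 steps. After 5 days, nuclei were stained in one fix-and-stain step and counted on 4× images, and relative viability is the nuclei count of treated wells over that of vehicle wells, given as the median of duplicate plates.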

[2] = tested on: EBC-1
Procedure, shortened: as §1

[3] = tested on: NCI-H1975
Procedure, shortened: as §1

[4] = tested on: NCI-H1703
Procedure, shortened: as §1

[5] = tested on: NCI-H1650
Procedure, shortened: as §1

[6] = tested on: A549
Procedure, shortened: as §1

[7] = tested on: NCI-H1734
Procedure, shortened: as §1

[8] = tested on: IA-LM
Procedure, shortened: as §1

[9] = tested on: LXF-289
Procedure, shortened: as §1

[10] = tested on: 201T
Procedure, shortened: as §1

[11] = tested on: Calu-6
Procedure, shortened: as §1

[12] = tested on: NCI-H1299
Procedure, shortened: as §1

[13] = tested on: HARA
Procedure, shortened: as §1

For COCC1(CO)C(=O)C2CCN1CC2 (stereo unspecified) [PRIMA-1MET] + CC1(C)CCC(c2ccc(Cl)cc2)=C(CN2CCN(c3ccc(C(=O)NS(=O)(=O)c4ccc(N[C@H](CCN5CCOCC5)CSc5ccccc5)c(S(=O)(=O)C(F)(F)F)c4)cc3)CC2)C1 [Navitoclax] (partner 0.5 µM), the relative viability ([1]; first compound 0.2 µM) was 0.876, the relative viability ([1]; first compound 0.6325 µM) was 0.77 and the relative viability ([1]; first compound 6.325 µM) was 0.787. The relative viability ([1]; first compound 20 µM) was 0.0496, the relative viability ([2]; first compound 0.2 µM) was 0.379 and the relative viability ([2]; first compound 0.6325 µM) was 0.37. It also gave a relative viability ([2]; first compound 2 µM) of 0.427, a relative viability ([2]; first compound 6.325 µM) of 0.416 and a relative viability ([2]; first compound 20 µM) of 0.151. For the same compound, the relative viability ([3]; first compound 0.2 µM) was 1.13, the relative viability ([3]; first compound 0.6325 µM) was 1.03 and the relative viability ([3]; first compound 2 µM) was 1.12. The relative viability ([3]; first compound 6.325 µM) was 1.21, the relative viability ([3]; first compound 20 µM) was 0.96 and the relative viability ([4]; first compound 0.2 µM) was 1.43. It also gave a relative viability ([4]; first compound 0.6325 µM) of 0.891, a relative viability ([4]; first compound 2 µM) of 1.18 and a relative viability ([4]; first compound 6.325 µM) of 1.21. It also gave a relative viability ([4]; first compound 20 µM) of 0.0405, a relative viability ([5]; first compound 0.2 µM) of 1.39 and a relative viability ([5]; first compound 0.6325 µM) of 1.14. For the same compound, the relative viability ([5]; first compound 2 µM) was 1.32, the relative viability ([5]; first compound 6.325 µM) was 1.33 and the relative viability ([5]; first compound 20 µM) was 0.888. The relative viability ([6]; first compound 0.2 µM) was 1.35, the relative viability ([6]; first compound 0.6325 µM) was 1.09 and the relative viability ([6]; first compound 2 µM) was 1.23. For the same compound, the relative viability ([6]; first compound 6.325 µM) was 1.16, the relative viability ([6]; first compound 20 µM) was 1.08 and the relative viability ([7]; first compound 0.2 µM) was 0.943. For the same compound, the relative viability ([7]; first compound 0.6325 µM) was 0.772, the relative viability ([7]; first compound 2 µM) was 0.744 and the relative viability ([7]; first compound 6.325 µM) was 0.922. The relative viability ([7]; first compound 20 µM) was 0.221, the relative viability ([8]; first compound 0.2 µM) was 0.657 and the relative viability ([8]; first compound 0.6325 µM) was 0.769. For the same compound, the relative viability ([8]; first compound 2 µM) was 0.714, the relative viability ([8]; first compound 6.325 µM) was 0.949 and the relative viability ([8]; first compound 20 µM) was 0.806. For the same compound, the relative viability ([9]; first compound 0.2 µM) was 0.966, the relative viability ([9]; first compound 0.6325 µM) was 0.956 and the relative viability ([9]; first compound 2 µM) was 0.93. It also gave a relative viability ([9]; first compound 6.325 µM) of 0.986, a relative viability ([9]; first compound 20 µM) of 0.903 and a relative viability ([10]; first compound 0.2 µM) of 1.31. For the same compound, the relative viability ([10]; first compound 0.6325 µM) was 1.17, the relative viability ([10]; first compound 2 µM) was 1.13 and the relative viability ([10]; first compound 6.325 µM) was 1.27. The relative viability ([10]; first compound 20 µM) was 1.2, the relative viability ([11]; first compound 0.2 µM) was 0.97 and the relative viability ([11]; first compound 0.6325 µM) was 0.823. It also gave a relative viability ([11]; first compound 2 µM) of 0.845, a relative viability ([11]; first compound 6.325 µM) of 0.781 and a relative viability ([11]; first compound 20 µM) of 0.305. The relative viability ([12]; first compound 0.2 µM) was 1.14, the relative viability ([12]; first compound 0.6325 µM) was 1.04 and the relative viability ([12]; first compound 2 µM) was 1.05. It also gave a relative viability ([12]; first compound 6.325 µM) of 1.11, a relative viability ([12]; first compound 20 µM) of 1.04 and a relative viability ([13]; first compound 0.2 µM) of 1.22. It also gave a relative viability ([13]; first compound 0.6325 µM) of 1.02, a relative viability ([13]; first compound 6.325 µM) of 1.13 and a relative viability ([13]; first compound 20 µM) of 1.11.
Compound COCC1(CO)C(=O)C2CCN1CC2 (stereo unspecified) [PRIMA-1MET] + Cc1nc(NC(=O)N2CCC[C@H]2C(N)=O)sc1-c1ccnc(C(C)(C)C(F)(F)F)c1 [Alpelisib] (partner 2 µM) has a relative viability ([1]; first compound 0.2 µM) of 0.364, a relative viability ([1]; first compound 0.6325 µM) of 0.26 and a relative viability ([1]; first compound 6.325 µM) of 0.335. For the same compound, the relative viability ([1]; first compound 20 µM) was 0.0523, the relative viability ([2]; first compound 0.2 µM) was 0.87 and the relative viability ([2]; first compound 0.6325 µM) was 0.921. For the same compound, the relative viability ([2]; first compound 2 µM) was 0.83, the relative viability ([2]; first compound 6.325 µM) was 0.757 and the relative viability ([2]; first compound 20 µM) was 0.666. For the same compound, the relative viability ([3]; first compound 0.2 µM) was 0.822, the relative viability ([3]; first compound 0.6325 µM) was 0.603 and the relative viability ([3]; first compound 2 µM) was 0.694. The relative viability ([3]; first compound 6.325 µM) was 0.68, the relative viability ([3]; first compound 20 µM) was 0.574 and the relative viability ([4]; first compound 0.2 µM) was 0.393. It also gave a relative viability ([4]; first compound 0.6325 µM) of 0.37, a relative viability ([4]; first compound 2 µM) of 0.318 and a relative viability ([4]; first compound 6.325 µM) of 0.436. It also gave a relative viability ([4]; first compound 20 µM) of 0.0451, a relative viability ([6]; first compound 0.2 µM) of 0.728 and a relative viability ([6]; first compound 0.6325 µM) of 0.803. It also gave a relative viability ([6]; first compound 2 µM) of 0.861, a relative viability ([6]; first compound 6.325 µM) of 0.881 and a relative viability ([6]; first compound 20 µM) of 0.593. The relative viability ([7]; first compound 0.2 µM) was 0.876, the relative viability ([7]; first compound 0.6325 µM) was 0.658 and the relative viability ([7]; first compound 2 µM) was 0.679. The relative viability ([7]; first compound 6.325 µM) was 0.73, the relative viability ([7]; first compound 20 µM) was 0.3 and the relative viability ([8]; first compound 0.2 µM) was 0.695. It also gave a relative viability ([8]; first compound 0.6325 µM) of 0.863, a relative viability ([8]; first compound 2 µM) of 0.726 and a relative viability ([8]; first compound 6.325 µM) of 1. For the same compound, the relative viability ([8]; first compound 20 µM) was 0.813, the relative viability ([9]; first compound 0.2 µM) was 1.13 and the relative viability ([9]; first compound 0.6325 µM) was 0.973. For the same compound, the relative viability ([9]; first compound 2 µM) was 1.08, the relative viability ([9]; first compound 6.325 µM) was 1.04 and the relative viability ([9]; first compound 20 µM) was 0.939. It also gave a relative viability ([10]; first compound 0.2 µM) of 1.04, a relative viability ([10]; first compound 0.6325 µM) of 0.971 and a relative viability ([10]; first compound 2 µM) of 0.885. The relative viability ([10]; first compound 6.325 µM) was 1.05, the relative viability ([10]; first compound 20 µM) was 1.03 and the relative viability ([11]; first compound 0.2 µM) was 1.02. It also gave a relative viability ([11]; first compound 0.6325 µM) of 0.941, a relative viability ([11]; first compound 2 µM) of 0.859 and a relative viability ([11]; first compound 6.325 µM) of 1. The relative viability ([11]; first compound 20 µM) was 0.856, the relative viability ([12]; first compound 0.2 µM) was 1.07 and the relative viability ([12]; first compound 0.6325 µM) was 1.08. It also gave a relative viability ([12]; first compound 2 µM) of 1.08, a relative viability ([12]; first compound 6.325 µM) of 1.03 and a relative viability ([12]; first compound 20 µM) of 0.976. For the same compound, the relative viability ([13]; first compound 0.2 µM) was 0.97, the relative viability ([13]; first compound 0.6325 µM) was 0.603 and the relative viability ([13]; first compound 6.325 µM) was 0.836. It also gave a relative viability ([13]; first compound 20 µM) of 0.954.
